Test results taken from patent EP0719271B1, “5-(1-FLUORO-VINYL)-1H-PYRIMIDINE-2,4-DIONE DERIVATIVES USEFUL AS ANTINEOPLASTIC AGENTS” (MERRELL PHARMACEUTICALS INC., priority 1993, dated 1995).
Where two headings read alike, the source gives them in different places.

System: KB cells
Test: Antiproliferative activity against KB cells, cell viability by colorimetric MTT reduction assay
Format: cell-based
Conditions: Homo sapiens
Description: Plate KB cells (2X10^3 cells/well) and allow to grow for 18 hours. Treat with 2'-deoxy-5-(1-fluoroethenyl)uridine (15ng/mL) for 24 hours. Wash the compound and expose cells to 5-fluorouracil for another 72 hours. Determine the cell viability by a colorimetric assay, essentially as described by Carmichael et al. [Cancer Res. 47, 936 (1987)], whereby the cellular reduction of MTT [3-(4,5-dimethylthiazol-2-yl)-2,5-diphenyltetrazolium bromide] is measured.
Calculate IC50 values for the individual treatments as well as for the combined treatments of 2'-deoxy-5-(1-fluoroethenyl)-uridine with 5-fluorouracil. The IC50 values at the various concentrations of 2'-deoxy-5-(1-fluoroethenyl)-uridine alone, 5-fluorouracil alone and 2'-deoxy-5-(1-fluoroethenyl)-uridine in combination with 5-fluorouracil are presented in Table 1.

IC50 (individual treatment (compound alone), KB cells, 2X10^3 cells/well, MTT viability, read-out: IC50) [µM] | Structure (SMILES) | IC50 (KB) [µM]
9.4 | C=C(F)c1cn([C@H]2C[C@H](O)[C@@H](CO)O2)c(=O)[nH]c1=O [2'-Deoxy-5-(1-fluoroethenyl)-uridine, 2'-deoxy-5-(1-fluoroethenyl)uridine] | –
– | O=c1[nH]cc(F)c(=O)[nH]1 [5-Fluorouracil] | 60
